These results are taken from patent US20040102468A1 (Gruenenthal GmbH, priority 2001, published 2004).

The test system of one test is rat. The note with it: rat model of rhythmic bladder contractions; cited from earlier work.
For test [1], the system named is female Sprague-Dawley rats with oxyhaemoglobin-induced bladder overactivity. Description: Cystometry on conscious damaged rats (oxyhaemoglobin-induced bladder overactivity, urgency incontinence model). Format: in vivo, rat. The note with it: OxyHb 2.5 × 10^−4 M alone.

For the compound `COc1cccc(C2(O)CCCCC2CN(C)C)c1` (stereo not shown) [tramadol], in the test on rat, the “effect on bladder function” value is recorded as “positive effect on bladder function”.

With oxyhaemoglobin [OxyHb], in test [1] (n=5), the “BC bladder capacity, after (a)” value is reported as “a: 0.65 ± 0.06 ml”; the “BC bladder capacity, change (dif.) compared with the pre-value” is “dif.: −29.3%”; the “ICI intercontraction interval, after (a)” value was “a: 3.33 ± 0.18 min”; the “ICI intercontraction interval, change (dif.) compared with the pre-value” is recorded as “dif.: −32.9%”. Further, in test [1] (n=5), the “MP micturition pressure, after (a)” value is recorded as “a: 97 ± 5 cm H2O”; the “MP micturition pressure, change (dif.) compared with the pre-value” was “dif.: +64.4%”; the “TP threshold pressure, after (a)” value is given as “a: 9.84 ± 1.56 cm H2O”; the “TP threshold pressure, change (dif.) compared with the pre-value” is “dif.: +12.8%”. Moreover, in test [1] (n=5, pre-value), the “BC bladder capacity, before (b)” value is on record as “b: 0.92 ± 0.10 ml”; the “ICI intercontraction interval, before (b)” value is listed as “b: 4.96 ± 0.33 min”; the “MP micturition pressure, before (b)” value is given as “b: 59 ± 8 cm H2O”; the “TP threshold pressure, before (b)” value is listed as “b: 8.72 ± 1.31 cm H2O”.
